From paper PMC11956017, “Design of Benzyl-triazolopyrimidine-Based NADPH Oxidase Inhibitors Leads to the Discovery of a Potent Dual Covalent NOX2/MAOB Inhibitor” (Journal of Medicinal Chemistry, 2025)
Values joined by “and” are separate entries in the source; they are usually repeats but may differ in a detail not shown here. Identical values can stand only once. “Also recorded” adds a separate entry of the source.

Tests used:
[1] = molecular target: T1, human MAOB (Homo sapiens, UniProt P27338); assay: Purified MAOB, Amplex Red/horseradish peroxidase coupled assay; type: biochemical; details: for IC50 / IC50 Purified MAOB: 10 nM MAOB, 1 mM benzylamine
T1 construct: made in house; host or cells: Pichia pastoris
T1 sequence (P27338 1-520): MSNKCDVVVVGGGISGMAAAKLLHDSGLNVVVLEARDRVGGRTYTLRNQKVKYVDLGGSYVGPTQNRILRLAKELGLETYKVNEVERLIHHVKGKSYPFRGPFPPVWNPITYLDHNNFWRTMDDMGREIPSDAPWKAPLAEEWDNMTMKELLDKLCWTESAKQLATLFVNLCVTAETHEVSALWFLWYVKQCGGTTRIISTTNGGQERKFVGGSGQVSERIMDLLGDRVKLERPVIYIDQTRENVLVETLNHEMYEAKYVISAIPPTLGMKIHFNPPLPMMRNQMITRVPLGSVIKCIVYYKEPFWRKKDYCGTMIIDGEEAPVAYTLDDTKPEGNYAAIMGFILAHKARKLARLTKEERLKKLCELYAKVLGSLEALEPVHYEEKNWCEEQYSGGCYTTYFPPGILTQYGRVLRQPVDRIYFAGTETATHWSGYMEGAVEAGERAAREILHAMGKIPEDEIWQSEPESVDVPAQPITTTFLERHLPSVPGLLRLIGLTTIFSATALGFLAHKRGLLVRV
Experimental: IC50 values on human MAOA and human MAOB were determined using the Amplex Red/horseradish peroxidase coupled assay. […] Measurements were performed using a ClarioStar plate reader (excitation 572 nm and emission 583 nm) (BMG Labtech). IC50 values were obtained by fitting the percentage of inhibition versus log(inhibitor concentration) using GraphPad software 7.0. The covalent modification of the flavin upon the reaction with the propargylamine-containing inhibitors was monitored spectrophotometrically using a diode array UV/visible spectrophotometer (Agilent Technologies). […] The cofactor covalent modification was monitored over time following the shift of the enzyme-bound flavin (peaks at 370 and 456 nm) to 410 nm (ε410 = 23,500 M^–1 cm^–1) (Figure S10).

[2] = molecular target: T2, human myoglobin (Homo sapiens, UniProt P02144); assay: Native mass spectrometry of myoglobin reactivity; type: binding; details: myoglobin 1 µM, compound 5 µM and 20 µM, pH 7.5, 30 minutes
T2 construct: purchased Sigma Aldrich M6036; host or cells: human cardiac
T2 sequence (P02144 1-154): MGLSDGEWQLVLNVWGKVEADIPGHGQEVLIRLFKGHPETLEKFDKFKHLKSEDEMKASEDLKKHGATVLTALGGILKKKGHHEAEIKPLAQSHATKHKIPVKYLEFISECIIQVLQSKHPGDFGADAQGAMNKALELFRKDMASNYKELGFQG
Experimental: (§1) Protein samples were buffer-exchanged into 200 mM ammonium acetate (pH 7.5) through dialysis prior to native MS analyses. These samples were directly introduced into the mass spectrometer using gold-coated capillary needles prepared in-house.[63] Data were collected on a Q Exactive UHMR hybrid quadrupole-Orbitrap mass spectrometer (Thermo Fisher) with positive polarity. The instrument parameters used for MS spectra collection were the following: capillary voltage, 1.2 kV; scan range from 1000 to 20,000 m/z; HCD collision energy, 0–100 V; source fragmentation, 0 V; in-source trapping, 0 V. The ion transfer optics was set as follows: injection flatapole, 5 V; interflatapole lens, 4 V; bent flatapole, 2 V; transfer multipole, 0 V. The resolution of the instrument was 17,500 at m/z = 200 (transient time of 64 ms), the nitrogen pressure in the HCD cell was maintained at approximately 4 × 10^–10 mbar, and the source temperature was kept at 100 °C. The noise level was set at 3 rather than the default value of 4.64. Calibration of the instruments was performed using 10 mg/mL solution of cesium iodide in water. Data were analyzed using Xcalibur 3.0 (Thermo Scientific), NaViA,[64] and UniDec software packages.[65]

[3] = Mass spectrometric analysis of GSH reactivity; details: GSH 10 µM and compound 10 µM (1:1), ammonium acetate 200 mM, pH 7.4
Experimental: Reactivity between 9a and GSH was measured via mass spectrometry on a Q Exactive UHMR hybrid quadrupole-Orbitrap mass spectrometer (Thermo Fisher) with positive polarity. The instrument parameters used for MS spectra collection were the following: capillary voltage, 1.2 kV; scan range from 350 to 2000 m/z; HCD collision voltage, 0 V; source fragmentation, 0 V; in-source trapping, 0 V. The ion transfer optics was set as follows: injection flatapole, 5 V; inner-flatapole lens, 4 V; bent flatapole, 2 V; transfer multipole, 0 V. The resolution of the instrument was 200,000 at m/z = 400, the nitrogen pressure in the HCD cell was maintained at approximately 9.8 × 10^–11 mbar, and the source temperature was kept at 100 °C. Solutions for flow injection analysis were constituted by dissolving each compound in LC-MS-grade MeOH.

[4] = tested on: BV2 cells; assay: ROS detection with CellROX Deep Red in BV2 cells; type: cell-based, murine; details: 10 μM, LPS/IFN-γ stimulation, 48 h
Experimental: BV2 murine microglial cells were cultured in DMEM supplemented with 10% heat-inactivated FBS, 100 IU/mL penicillin G, […] streptomycin, and […] amphotericin B and grown at 37 °C in 5% CO2 and a humidified atmosphere. […] After 30 min, LPS 100 ng/mL and IFN-γ 20 ng/mL were added to the medium for an additional 48 h. After treatment, BV2 cells were incubated with a CellROX Deep Red reagent (cat. no. C10422) at 5 μM and incubated for 30 min at 37 °C as indicated by the manufacturer protocol. ROS levels were measured by a spectrofluorometer, taking as 100% the median fluorescence intensity of cells treated with the vehicle.

[5] = molecular target: T3, bovine albumin (Bos taurus, UniProt P02769); assay: Native mass spectrometry of BSA reactivity; type: binding; details: BSA 1 µM, compound 5 µM and 20 µM, pH 7.5, 30 minutes
T3 construct: Bovine serum albumin (BSA, Sigma Aldrich, A7030); purchased Sigma Aldrich A7030; host or cells: bovine serum
T3 sequence (P02769 25-607): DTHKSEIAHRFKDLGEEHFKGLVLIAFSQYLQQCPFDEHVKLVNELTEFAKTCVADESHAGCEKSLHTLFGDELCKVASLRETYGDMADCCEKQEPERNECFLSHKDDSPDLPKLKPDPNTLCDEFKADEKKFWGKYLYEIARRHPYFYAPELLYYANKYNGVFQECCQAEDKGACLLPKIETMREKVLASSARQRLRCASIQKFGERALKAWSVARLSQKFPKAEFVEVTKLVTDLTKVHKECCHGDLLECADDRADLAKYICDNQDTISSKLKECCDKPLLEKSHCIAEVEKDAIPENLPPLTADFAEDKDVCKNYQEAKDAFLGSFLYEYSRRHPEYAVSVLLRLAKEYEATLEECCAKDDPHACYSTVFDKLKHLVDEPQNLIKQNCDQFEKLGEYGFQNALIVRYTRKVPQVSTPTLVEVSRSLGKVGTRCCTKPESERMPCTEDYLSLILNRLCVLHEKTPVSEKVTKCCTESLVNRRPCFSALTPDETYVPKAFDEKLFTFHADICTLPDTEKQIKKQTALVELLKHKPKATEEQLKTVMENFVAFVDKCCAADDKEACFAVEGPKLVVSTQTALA
Experimental: as §1

[6] = tested on: csNOX5 dehydrogenase; assay: Intact protein mass spectrometry of csNOX5 dehydrogenase; type: binding, Cylindrospermum stagnale
Experimental: Approximately 1 mg mL^-1 protein was incubated with 300 μM FAD and 1 mM 9a at 4 °C for 1 h. A negative control reaction was performed by adding an equal volume of DMSO. Protein was denatured by adding 1% (v/v) formic acid. Chromatographic separation and mass spectrometry analysis were carried out as previously reported.[10] Analyses were carried out by ESI-qTOF-HRMS on an […] qTOF system (Sciex) embedding a Twin Sprayer ESI probe and coupled with an ExcionLC system (Sciex) controlled by SciexOS software v. 3.0.0. The injection volume was 10 μL (10 μg), and chromatographic separation was carried out with a bioZen WidePore C4 column (a 100 mm length, a 2.1 mm diameter, and a 2.6 μm particle size; Phenomenex).

[7] = tested on: BV2 cells; assay: MTT viability assay in BV2 cells; type: cell-based, murine; details: 10 μM, LPS/IFN-γ stimulation, 48 h

| IC50 [1] | IC50 Purified MAOB [1] | adduct formation with bovine serum albumin [5] | MAOB inhibition relative to rasagiline (weaker) [1] | increase in molecular weight of csNOX5 dehydrogenase after reaction ([6]; 1 mM inhibitor, 4 °C, 1 h, vs DMSO-treated protein) | Compound | adduct formation with myoglobin [2] | adduct formation with glutathione [3] | ROS levels in BV2 cells [4] | covalent binding to csNOX5 dehydrogenase active-site cysteine ([6]; intact protein ESI-qTOF-HRMS) | BV2 cell viability [7] |
| --- | --- | --- | --- | --- | --- | --- | --- | --- | --- | --- |
| > 100000 nM | ineffective; also recorded: Not detected |  |  |  | CCCNC(=O)c1ccc(Cn2nnc3c(Sc4nc5ccccc5o4)ncnc32)cc1 [Compound 8a, (4-((7-Benzo[d]oxazol-2-yl-thio)-3H-[1,2,3]triazole[4,5-d]pyrimidin-3-yl)methyl)-N-(propyl)benzamide] |  |  |  |  |  |
|  | Inhibition^b |  |  |  | C#CCNC(=O)c1ccc(Cn2nnc3c(Sc4nc5ccccc5o4)ncnc32)cc1 [Compound 8b, (4-((7-Benzo[d]oxazol-2-yl-thio)-3H-[1,2,3]triazole[4,5-d]pyrimidin-3-yl)methyl)-N-(prop-2-in-1-yl)benzamide] |  |  |  |  |  |
| 182 ± 100 nM |  | no adduct; also recorded: did not bind | 10 fold | 290 Da and 290.3 Da | C#CCN(C)Cc1ccc(Cn2nnc3c(Sc4nc5ccccc5o4)ncnc32)cc1 [Compound 9a, N-(4-((7-(Benzo[d]oxazol-2-ylthio)-3H-[1,2,3]triazolo[4,5-d]pyrimidin-3-yl)methyl)benzyl)-N-methylprop-2-yn-1-amine] | no adduct formation was detected; also recorded: did not bind | readily reacted with GSH; also recorded: able to form an adduct with glutathione | decrease the ROS levels; also recorded: strongest ROS-dumping activity | covalent binding | negligible effects on cells viability |
